Here are results for ten compounds from PubChem BioAssay (NCI).

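Test compounds were applied to cells in 96-well plates for 48 hours at 5 doses. Abbreviation: GI50, concentration required for 50% inhibition of growth. The concentration for full growth arrest is given as TGI.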 Where only a bound is given, the exact number is not on record here.

Test systems include A498 renal; ACHN renal; MOLT-4 leukemia; COLO 205 colon; NCI-H460 lung; IGROV1 ovarian; MALME-3M melanoma; M14 melanoma; SK-MEL-28 melanoma; HCC-2998 colon.
Test in all cases: NCI anticancer screen, dose series, 48 h

For the compound `O=C(/C=C/c1ccc([N+](=O)[O-])cc1)c1ccc2c3c(cccc13)CC2`, the GI50 is 11.6 µM in the assay with A498 renal; 47.9 µM in the assay with ACHN renal; 1.27 µM in the assay with MOLT-4 leukemia; 4.98 µM in the assay on COLO 205 colon; 4.23 µM in the assay with NCI-H460 lung; 4.36 µM with IGROV1 ovarian. The GI50 was above 64.2 µM in the assay with MALME-3M melanoma, above 64.6 µM with M14 melanoma, 18.2 µM in the assay with SK-MEL-28 melanoma and 26.9 µM in the assay on HCC-2998 colon. The TGI was 43.5 µM with A498 renal; above 100 µM with ACHN renal; 11.3 µM with MOLT-4 leukemia; above 25.4 µM in the assay with COLO 205 colon; above 64.8 µM in the assay with NCI-H460 lung; 53.2 µM in the assay on IGROV1 ovarian. In addition, the TGI in the assay with MALME-3M melanoma was above 100 µM; with M14 melanoma it was above 100 µM; with SK-MEL-28 melanoma, 58.9 µM; in the assay on HCC-2998 colon it was above 78.1 µM.

Regarding `CCc1cccc(C)c1NC(=O)C(=O)Cc1nc2ccccc2s1`, the TGI with A498 renal was above 100 µM; in the assay on ACHN renal it was above 100 µM; with MOLT-4 leukemia, above 100 µM; in the assay on COLO 205 colon, above 100 µM; with NCI-H460 lung, above 100 µM; in the assay with IGROV1 ovarian it was 20.8 µM. Moreover, the TGI in the assay with MALME-3M melanoma, with M14 melanoma, with SK-MEL-28 melanoma and in the assay with HCC-2998 colon was above 100 µM throughout.

Regarding `CC(C)c1cccc2sc(NC(=O)C(=O)C(C#N)c3cccc4ccccc34)nc12` (stereo not given), the TGI with A498 renal, in the assay with ACHN renal, in the assay with MOLT-4 leukemia, in the assay on COLO 205 colon, with NCI-H460 lung and in the assay on IGROV1 ovarian was above 100 µM throughout. Moreover, the TGI with MALME-3M melanoma, in the assay on M14 melanoma, in the assay with SK-MEL-28 melanoma and with HCC-2998 colon was above 100 µM in each case.

Regarding `Nc1nc(Nc2ccc(C3CCC(N4CCOCC4)CC3)cc2)nn1-c1ccccn1` (stereo not given), the GI50 with A498 renal was 5 µM; in the assay with ACHN renal it was 4.26 µM; with MOLT-4 leukemia, 2.86 µM; in the assay with COLO 205 colon, 5.17 µM; in the assay on NCI-H460 lung, 4.59 µM; in the assay on IGROV1 ovarian, 3.57 µM. For the same compound, the GI50 in the assay on MALME-3M melanoma is 5.58 µM; with M14 melanoma, 4.36 µM; in the assay with SK-MEL-28 melanoma, 4.34 µM; in the assay on HCC-2998 colon, 17.2 µM. Further, the TGI in the assay with A498 renal was 20.1 µM; in the assay on ACHN renal, above 100 µM; in the assay with MOLT-4 leukemia, 20.1 µM; with COLO 205 colon, above 100 µM; with NCI-H460 lung, above 69.2 µM; in the assay with IGROV1 ovarian it was above 100 µM. Moreover, the TGI with MALME-3M melanoma is above 46 µM; in the assay with M14 melanoma it was above 36.8 µM; in the assay on SK-MEL-28 melanoma, 16.4 µM; with HCC-2998 colon, above 100 µM.

With `CS[C@]12C(=O)C[C@@]3(C)[C@@H](CC[C@]3(O)C(=O)CO)[C@@H]1CCC1=CC(=O)CC[C@@]12C`, the TGI in the assay with A498 renal, in the assay with ACHN renal, in the assay with MOLT-4 leukemia, with COLO 205 colon, in the assay with NCI-H460 lung and with IGROV1 ovarian was above 100 µM in each case. Further, the TGI was above 100 µM with MALME-3M melanoma, above 100 µM in the assay on M14 melanoma, above 100 µM with SK-MEL-28 melanoma and 80.2 µM in the assay on HCC-2998 colon.

In the case of `C/C=C(\C)C(=O)O[C@H]1C=CC(=O)O[C@@H]1CC[C@H](O)[C@H](C)O`, the GI50 in the assay with A498 renal was above 100 µM; with ACHN renal, 33.4 µM; with MOLT-4 leukemia, 1.99 µM; in the assay with COLO 205 colon it was 30.6 µM; in the assay with NCI-H460 lung, above 77.3 µM; in the assay on IGROV1 ovarian it was 42 µM. Besides, the GI50 with MALME-3M melanoma was 29.3 µM; in the assay on M14 melanoma, 34 µM; with SK-MEL-28 melanoma it was 27.4 µM; with HCC-2998 colon, 64.6 µM. In addition, the TGI with A498 renal is above 100 µM; in the assay with ACHN renal, above 92.8 µM; in the assay on MOLT-4 leukemia it was above 100 µM; with COLO 205 colon, 72.6 µM; in the assay with NCI-H460 lung it was above 100 µM; with IGROV1 ovarian it was above 100 µM. In addition, the TGI is 70.6 µM in the assay on MALME-3M melanoma, above 100 µM in the assay on M14 melanoma, 74.7 µM with SK-MEL-28 melanoma and above 100 µM in the assay with HCC-2998 colon.

Take `Cc1ccc(C)c(NC(=O)CC/C(=N\NC(=O)c2c(O)ccc3ccccc23)C(C)C(=O)c2ccc(O)cc2)c1` (stereo not given): the TGI in the assay on A498 renal is above 100 µM; in the assay with ACHN renal, 84.6 µM; in the assay with MOLT-4 leukemia it was above 100 µM; in the assay on COLO 205 colon it was 51.3 µM; in the assay with NCI-H460 lung, above 100 µM; in the assay on IGROV1 ovarian, above 100 µM. Also, the TGI in the assay on MALME-3M melanoma is 90.2 µM; with M14 melanoma it was 41.4 µM; in the assay on SK-MEL-28 melanoma, above 100 µM; in the assay on HCC-2998 colon it was above 100 µM.

With `CCOC(=O)NC(=O)c1cn(CCCCCCOC(=O)NCCCCCCNC(=O)OCCCCCCn2cc(C(=O)NC(=O)OCC)c(=O)[nH]c2=O)c(=O)[nH]c1=O`, the TGI with A498 renal, in the assay on ACHN renal, in the assay with MOLT-4 leukemia, in the assay on COLO 205 colon, in the assay with NCI-H460 lung and in the assay with IGROV1 ovarian was above 100 µM each time. The TGI with MALME-3M melanoma, in the assay with M14 melanoma, in the assay on SK-MEL-28 melanoma and in the assay with HCC-2998 colon was above 100 µM in each case.

Regarding `O=C(c1ccccc1)c1cccc(C(=O)c2ccccc2)c1`, the TGI in the assay on A498 renal, in the assay on ACHN renal, in the assay with MOLT-4 leukemia, in the assay on COLO 205 colon, in the assay with NCI-H460 lung and in the assay on IGROV1 ovarian was above 100 µM each time. In addition, the TGI in the assay with MALME-3M melanoma, with M14 melanoma, in the assay with SK-MEL-28 melanoma and in the assay on HCC-2998 colon was above 100 µM each time.

Take `O=C(Nc1cccc(NC(=O)Nc2cc(C(F)(F)F)ccc2Cl)c1)Nc1cc(C(F)(F)F)ccc1Cl`: the GI50 in the assay on A498 renal was 1.48 µM; in the assay with ACHN renal it was 0.983 µM; in the assay on MOLT-4 leukemia, 5.19 µM; in the assay on COLO 205 colon, 3.44 µM; in the assay with NCI-H460 lung, 2.22 µM; in the assay with IGROV1 ovarian, 3.52 µM. For the same compound, the GI50 with MALME-3M melanoma was 4.55 µM; in the assay with M14 melanoma it was 3.53 µM; in the assay on SK-MEL-28 melanoma it was 2.84 µM; with HCC-2998 colon it was 6.72 µM. For the same compound, the TGI in the assay on A498 renal is 7.63 µM; in the assay with ACHN renal it was 11.2 µM; in the assay on MOLT-4 leukemia, above 100 µM; in the assay with COLO 205 colon, above 100 µM; with NCI-H460 lung it was 10.5 µM; in the assay with IGROV1 ovarian, 18.8 µM. Also, the TGI in the assay with MALME-3M melanoma is 44.1 µM; in the assay with M14 melanoma, 60 µM; in the assay on SK-MEL-28 melanoma it was 15.4 µM; in the assay on HCC-2998 colon, above 100 µM.
